According to article PMC7997411, “Discovery and Optimization of Selective Inhibitors of Meprin α (Part II)” (Pharmaceuticals, 2021):
“And” between values parts separate entries of the source, which are not always exact repeats. Identical values can stand only once. Like-named read-outs stand apart in the source and are kept apart here.

Tests used:
Type in all cases: biochemical
ADAM17 = molecular target: T1, ADAM17 (Homo sapiens, UniProt P78536); assay: ADAM17 assay
T1 construct: purchased R&D Systems 930-ADB
Description: MMP-1, MMP-2, MMP-8, MMP-9, MMP-10, MMP-13, MMP-14, ADAM10, ADAM17 and Mca-KPLGL-Dpa-AR-NH2 fluorogenic peptide substrate were purchased from R&D Systems (cat # 901-MP, 902-MP, 908-MP, 911-MP, 910-MP, 511-MM, 918-MP, 936-AD, 930-ADB, and ES010, respectively). All common chemicals were purchased from Sigma. NFF449 was purchased from Tocris (cat# 1391) and actinonin was from Sigma-Aldrich, St. Louis, MO, USA (cat# 01809).
Both assays followed the same general protocol. 2.5 µL of 2× enzyme solution (20 nM) in assay buffer (10 mM HEPES, 0.001% Brij-35, pH 7.5) were added to solid bottom black 384 plates (Greiner, cat# 789075). Next, test compounds and pharmacological controls were added to corresponding wells using a 384-pin tool device (V&P Scientific, San Diego). After 30 min incubation at RT, the reactions were started by addition of 2.5 µL of 2× solutions of substrate (R&D Systems cat#: ES010, Mca-KPLGL-Dpa-AR-NH2, 20 µM). Reactions were incubated at RT for 2 h, after which the fluorescence was measured using a Perkin Elmer Viewlux multimode microplate imager (λexcitation = 324 nm, λemission = 393 nm). All compounds were tested in 10-point, 1:3 serial dilutions dose-response format starting with highest concentration of 100 µM. IC50 values were determined using non-linear regression analysis using the GraphPad Prism 8.0 suite of programs.

meprin α = molecular target: T2, meprin α (Homo sapiens, UniProt Q16819); assay: Meprin α assay in a 384-well plate (fluorogenic substrate Mca-YVADAPK-K(Dnp))
T2 construct: Strep-tag; made in house; host or cells: BTI-TN-5B1-4 insect cells (baculovirus, amplified in Sf9)
T2 sequence (Q16819 66-746): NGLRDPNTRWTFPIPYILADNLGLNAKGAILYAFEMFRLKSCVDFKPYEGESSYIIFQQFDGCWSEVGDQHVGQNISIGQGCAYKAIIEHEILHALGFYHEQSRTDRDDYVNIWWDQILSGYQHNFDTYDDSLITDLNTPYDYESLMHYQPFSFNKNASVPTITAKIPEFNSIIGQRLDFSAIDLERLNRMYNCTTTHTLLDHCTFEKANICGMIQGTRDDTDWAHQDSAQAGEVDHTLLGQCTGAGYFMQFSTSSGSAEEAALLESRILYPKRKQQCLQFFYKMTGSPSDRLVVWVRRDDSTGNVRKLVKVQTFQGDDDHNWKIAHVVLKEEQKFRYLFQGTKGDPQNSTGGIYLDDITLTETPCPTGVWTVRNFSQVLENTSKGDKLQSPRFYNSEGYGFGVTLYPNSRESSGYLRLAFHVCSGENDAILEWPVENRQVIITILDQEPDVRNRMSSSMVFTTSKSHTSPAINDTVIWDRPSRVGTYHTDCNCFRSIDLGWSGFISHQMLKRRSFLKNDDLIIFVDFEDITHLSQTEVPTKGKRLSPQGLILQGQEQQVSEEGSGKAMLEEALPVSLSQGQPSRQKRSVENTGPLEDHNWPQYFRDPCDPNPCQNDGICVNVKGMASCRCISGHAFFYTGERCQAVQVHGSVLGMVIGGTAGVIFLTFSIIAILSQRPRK
Description: Recombinant human meprin α and meprin β were expressed using the Bac-to-Bac expression system (Gibco Life Technologies, Paisley, UK) as described before. Media and supplements were obtained from Gibco Life Technologies. Recombinant Baculoviruses were amplified in adherently growing Spodoptera frugiperda (Sf)9 insect cells at 27 °C in Grace’s insect medium supplemented with 10% fetal bovine serum, 50 units/mL penicillin, and 50 μg/mL streptomycin. Protein expression was performed in 500 mL suspension cultures of BTI-TN-5B1-4 insect cells growing in Express Five SFM supplemented with 4 mM glutamine, 50 units/mL penicillin, and 50 μg/mL streptomycin in Fernbach-flasks using a Multitron orbital shaker (INFORS AG, Bottmingen, Switzerland). Cells were infected at a density of 2 × 10^6 cells/mL with an amplified viral stock at a MOI of ~10. […] Meprins were activated by trypsin, which was removed afterwards by affinity chromatography using a column containing immobilized chicken ovomucoid, a trypsin inhibitor.
Both assays followed the same general protocol. […] After 30 min incubation at RT, the reactions were started by addition of 5 µL of 2× solutions of substrates (20 µM, meprin α Mca-YVADAPK-K(Dnp), and for meprin β Mca-EDEDED-K(Dnp)).

ADAM10 = molecular target: T3, ADAM10 (Homo sapiens, UniProt O14672); assay: ADAM10 assay
T3 construct: purchased R&D Systems 936-AD
T3 sequence (O14672 214-748): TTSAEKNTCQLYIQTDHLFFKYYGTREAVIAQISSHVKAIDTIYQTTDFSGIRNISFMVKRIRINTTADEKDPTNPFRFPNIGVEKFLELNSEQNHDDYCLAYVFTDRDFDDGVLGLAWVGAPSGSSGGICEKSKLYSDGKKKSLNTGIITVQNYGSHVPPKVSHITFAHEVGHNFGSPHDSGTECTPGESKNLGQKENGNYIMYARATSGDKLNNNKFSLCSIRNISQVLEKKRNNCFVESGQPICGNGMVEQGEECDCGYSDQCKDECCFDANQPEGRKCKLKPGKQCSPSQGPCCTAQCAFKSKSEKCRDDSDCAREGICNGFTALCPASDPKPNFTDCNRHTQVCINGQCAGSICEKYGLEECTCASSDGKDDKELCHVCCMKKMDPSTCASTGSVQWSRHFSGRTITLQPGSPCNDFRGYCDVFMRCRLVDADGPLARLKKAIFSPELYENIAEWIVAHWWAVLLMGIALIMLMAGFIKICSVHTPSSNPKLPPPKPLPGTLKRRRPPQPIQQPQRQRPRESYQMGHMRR
Description: All common chemicals were purchased from Sigma.
Both assays followed the same general protocol. […] After 30 min incubation at RT, the reactions were started by addition of 2.5 µL of 2× solutions of substrate (R&D Systems cat#: ES010, Mca-KPLGL-Dpa-AR-NH2, 20 µM). […] All compounds were tested in 10-point, 1:3 serial dilutions dose-response format starting with highest concentration of 100 µM. IC50 values were determined using non-linear regression analysis using the GraphPad Prism 8.0 suite of programs.

T1 sequence (P78536 215-824): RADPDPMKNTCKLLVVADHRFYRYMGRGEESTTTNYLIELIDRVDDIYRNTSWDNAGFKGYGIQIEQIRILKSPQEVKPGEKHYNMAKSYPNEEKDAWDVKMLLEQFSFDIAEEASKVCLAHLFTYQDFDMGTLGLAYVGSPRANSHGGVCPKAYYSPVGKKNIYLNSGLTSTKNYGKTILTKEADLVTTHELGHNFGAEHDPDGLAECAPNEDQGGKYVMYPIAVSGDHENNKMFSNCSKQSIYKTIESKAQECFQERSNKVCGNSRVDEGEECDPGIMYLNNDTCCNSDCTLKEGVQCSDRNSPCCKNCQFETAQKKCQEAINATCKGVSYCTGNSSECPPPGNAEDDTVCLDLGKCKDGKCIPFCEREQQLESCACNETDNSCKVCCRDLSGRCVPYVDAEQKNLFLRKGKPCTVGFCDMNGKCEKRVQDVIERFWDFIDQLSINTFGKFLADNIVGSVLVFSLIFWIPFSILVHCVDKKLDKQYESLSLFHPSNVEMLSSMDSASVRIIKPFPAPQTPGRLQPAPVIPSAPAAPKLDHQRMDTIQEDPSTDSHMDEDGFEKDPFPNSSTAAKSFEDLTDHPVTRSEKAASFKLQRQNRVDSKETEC

Row | IC50 (ADAM17) [µM] | IC50 (meprin α; triplicate, ± SD) [µM] | IC50 (ADAM10) [µM] | IC50 (meprin α) [µM] | fold more potent than the HTS hit SR19855 in binding meprin α (meprin α) | meprin α/β fold selectivity (ratio of IC50 values) (meprin α; meprin α over meprin β) | extent of meprin α inhibition (in words) (meprin α; scale-up batch, higher doses tested, Figure 4A) | SMILES
1 | 0.2 ± 0.02 | 0.004 | – | – | – | – | – | CCCCC[C@H](CC(=O)NO)C(=O)N[C@H](C(=O)N1CCC[C@H]1CO)C(C)C [Actinonin, actinonin, reference compound]
2 | > 100 | 0.66 ± 0.03 | > 100 | 0.49 to 0.67 | ~ 2 fold | > 100 fold and 106 fold and ~ 106 fold | full meprin α inhibition | COc1cc(OC)nc(SCc2nnc(SCC(=O)NO)n2-c2ccc(N(C)C)cc2)n1 [SR24717]
